Assay results as given in article PMC6315376 (Cell Reports, 2019).

Key:
[1] = test system: phospho-AP2M1 (T156); test: Western blot of phospho-AP2M1; type: cell-based, human; conditions: HT1080 cells, 1 μM, without WNT3A
[2] = target: T1, AAK1 (Homo sapiens, UniProt Q2M2I8); test: biochemical; type: binding
Target sequence in this assay (Q2M2I8 31-396): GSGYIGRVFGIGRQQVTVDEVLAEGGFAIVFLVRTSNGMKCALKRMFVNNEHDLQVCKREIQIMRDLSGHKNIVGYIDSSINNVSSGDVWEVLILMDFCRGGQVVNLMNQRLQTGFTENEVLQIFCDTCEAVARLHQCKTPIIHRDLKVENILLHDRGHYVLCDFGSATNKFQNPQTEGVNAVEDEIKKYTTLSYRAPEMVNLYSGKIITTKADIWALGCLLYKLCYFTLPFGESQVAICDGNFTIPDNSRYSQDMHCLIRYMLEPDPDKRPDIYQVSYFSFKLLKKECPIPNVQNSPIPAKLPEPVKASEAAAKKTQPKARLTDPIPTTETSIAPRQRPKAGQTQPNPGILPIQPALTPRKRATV

[3] = target: PIP5K1C (Homo sapiens, UniProt O60331); test: PIP5K1C enzyme assay, ADP-Glo format; type: biochemical
[4] = target: T1, AAK1; test: biochemical; conditions: IC50 for inhibition of AAK1 enzymatic activity, 46 μM ATP (at Km)
Target sequence in this assay (Q2M2I8 27-365): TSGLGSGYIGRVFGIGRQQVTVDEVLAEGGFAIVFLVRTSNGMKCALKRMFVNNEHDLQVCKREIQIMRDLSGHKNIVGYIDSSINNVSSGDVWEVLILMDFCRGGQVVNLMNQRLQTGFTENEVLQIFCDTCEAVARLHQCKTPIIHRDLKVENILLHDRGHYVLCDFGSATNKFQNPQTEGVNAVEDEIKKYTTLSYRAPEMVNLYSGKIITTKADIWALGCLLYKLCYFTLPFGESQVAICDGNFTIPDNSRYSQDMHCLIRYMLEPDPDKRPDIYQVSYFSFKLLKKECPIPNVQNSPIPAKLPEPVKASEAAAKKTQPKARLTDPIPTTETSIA

[5] = test system: phospho-AP2M1 (Thr156); test: Western blot of phospho-AP2M1; type: cell-based, human; conditions: HEK293T cells, 2 hr, concentration-dependent
[6] = test system: LRP6 surface levels; test: LRP6 surface staining by flow cytometry in HEK293T cells; type: cell-based, human; conditions: co-treatment with WNT3A, 8 hr
[7] = test system: β-catenin-activated Firefly luciferase reporter (BAR); test: BAR luciferase reporter assay in HT1080-B/R stable cells; type: cell-based, human; conditions: AAK1 siRNA 56 hr, then treatment 16 hr
[8] = test system: LRP6; test: Western blot of endogenous LRP6 in HEK293T cells overexpressing AAK1; type: cell-based, human; conditions: FLAG-AAK1 overexpression, 100 nm, 6 hr

PIP5K1C, sequence (O60331 whole entry): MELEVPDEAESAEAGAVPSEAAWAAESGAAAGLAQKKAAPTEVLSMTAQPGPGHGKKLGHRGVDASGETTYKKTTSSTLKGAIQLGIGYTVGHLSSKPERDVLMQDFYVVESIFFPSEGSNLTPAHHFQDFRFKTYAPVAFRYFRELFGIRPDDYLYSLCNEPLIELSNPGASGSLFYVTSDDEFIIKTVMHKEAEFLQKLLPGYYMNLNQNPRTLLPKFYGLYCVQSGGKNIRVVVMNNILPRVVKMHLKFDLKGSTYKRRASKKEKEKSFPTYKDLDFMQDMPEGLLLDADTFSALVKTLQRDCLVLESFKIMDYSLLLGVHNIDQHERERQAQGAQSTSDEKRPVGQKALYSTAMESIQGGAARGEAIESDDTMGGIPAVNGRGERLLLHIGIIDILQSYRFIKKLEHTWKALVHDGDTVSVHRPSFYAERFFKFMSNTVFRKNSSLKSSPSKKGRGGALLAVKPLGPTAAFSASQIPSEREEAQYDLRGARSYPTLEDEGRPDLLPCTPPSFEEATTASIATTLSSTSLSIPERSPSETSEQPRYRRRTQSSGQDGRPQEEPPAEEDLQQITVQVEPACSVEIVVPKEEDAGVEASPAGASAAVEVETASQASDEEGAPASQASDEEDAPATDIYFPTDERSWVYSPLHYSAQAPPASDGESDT

Cc1c[nH]c(-c2cnc(NCCNc3ccc(C#N)cn3)nc2-c2ccc(Cl)cc2Cl)n1 [CHIR99021]
pAP2M1 levels [1]: did not result in elevated pAP2M1 levels

CC(C)C(=O)Nc1n[nH]c2cc(-c3cccc(NS(=O)(=O)C4CC4)c3)ccc12 [34A, N-(6-(3-(cyclopropanesulfonamido)phenyl)-1H-indazol-3-yl)isobutyramide]
Ki [2]: 2000 nM
IC50 [3]: 3600 nM
IC50 [4]: > 1000 nM

CCN(CC)S(=O)(=O)Nc1cccc(-c2ccc3c(NC(=O)C4CC4)n[nH]c3c2)c1 [SGC-AAK1-1, N-(6-(3-((N,N-diethylsulfamoyl)amino)phenyl)-1H-indazol-3-yl)cyclopropanecarboxamide]
phosphorylation of the AP2M1 subunit at Thr156 [5]: inhibited the phosphorylation of the AP2M1 subunit at Thr156
rescue of the WNT3A-induced decrease of LRP6 surface levels [6]: rescued

CN(C)CCCN1c2ccccc2Sc2ccc(Cl)cc21 [chlorpromazine]
WNT signaling (BAR) induced by AAK1 silencing [7]: suppressed WNT signaling induced by AAK1 silencing

CO/C1=C\C(C)=C\[C@@H](C)[C@@H](O)[C@@H](C)C/C(C)=C/C=C/[C@H](OC)[C@@H]([C@@H](C)[C@@H](O)[C@H](C)[C@@]2(O)C[C@@H](O)[C@H](C)[C@@H](C(C)C)O2)OC1=O [bafilomycin A1]
AAK1-driven downregulation of LRP6 [8]: rescued AAK1-driven downregulation of LRP6
